Reference: patent US12660819B2, “Herbicidal derivatives” (SYNGENTA CROP PROTECTION AG, priority 2020, dated 2026)

Assays:
Assay type in all cases: in vivo
[1] = test system: Echinochloa crus-galli (ECHCG); assay: Pre-emergence Test (glasshouse, percentage damage to the plant); details: 1000 g/ha unless otherwise stated, five-point scale
[2] = test system: Echinochloa crus-galli (ECHCG); assay: Post-emergence Test (glasshouse, percentage damage to the plant); details: post-emergence spray, 1000 g/ha unless otherwise stated, evaluated after 13 days
Method in brief: (§1)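 Seeds sown in pots in glasshouse (24/16 °C day/night, 14 h light, 65% humidity), then sprayed with compound at 1000 g/ha unless stated, from acetone/water 50:50 with 0.5% Tween 20. Damage assessed 13 days later on five-point scale (1=0–20% to 5=81–100%).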

[3] = test system: Ipomoea hederacea (IPOHE); assay: as above; details: post-emergence spray, 1000 g/ha unless otherwise stated, evaluated after 13 days
Method in brief: (§2)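 Seeds sown in standard soil in a glasshouse (24/16 °C day/night, 14 h light, 65% humidity), then sprayed with an aqueous solution of the compound formulated in acetone/water 50:50 with 0.5% Tween 20 at 1000 g/ha unless otherwise stated. Percentage damage was scored after 13 days on a five-point scale (5=81-100%; 1=0-20%).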

Zea mays (ZEAMX) [4] = assay: as above; details: post-emergence spray, 1000 g/ha unless otherwise stated, evaluated after 13 days
Method in brief: as §2

[5] = test system: Amaranthus retoflexus (AMARE); assay: as above; details: post-emergence spray, 1000 g/ha unless otherwise stated, evaluated after 13 days
Method in brief: as §1

Setaria faberi (SETFA) [6] = assay: as above; details: post-emergence spray, 1000 g/ha unless otherwise stated, evaluated after 13 days
Method in brief: as §2

[7] = test system: Abutilon theophrasti (ABUTH); assay: as above; details: post-emergence spray, 1000 g/ha unless otherwise stated, evaluated after 13 days
Method in brief: as §1

Zea mays (ZEAMX) [8] = assay: Pre-emergence Test (glasshouse, percentage damage to the plant); details: 1000 g/ha unless otherwise stated, five-point scale
[9] = test system: Abutilon theophrasti (ABUTH); assay: as above; details: 1000 g/ha unless otherwise stated, five-point scale
[10] = test system: Ipomoea hederacea (IPOHE); assay: as above; details: 1000 g/ha unless otherwise stated, five-point scale
[11] = test system: Amaranthus retoflexus (AMARE); assay: as above; details: 1000 g/ha unless otherwise stated, five-point scale
Setaria faberi (SETFA) [12] = assay: as above; details: 1000 g/ha unless otherwise stated, five-point scale

SMILES	percentage damage to the plant, ECHCG [1]	Post-emergence Test ECHCG, percentage damage to the plant (five-point scale) [2]	Post-emergence Test IPOHE, percentage damage to the plant (five-point scale) [3]	Post-emergence Test ZEAMX, percentage damage to the plant (five-point scale) (Zea mays (ZEAMX) [4])	Post-emergence Test AMARE, percentage damage to the plant (five-point scale) [5]	Post-emergence Test SETFA, percentage damage to the plant (five-point scale) (Setaria faberi (SETFA) [6])	Post-emergence Test ABUTH, percentage damage to the plant (five-point scale) [7]	percentage damage to the plant, ZEAMX (Zea mays (ZEAMX) [8])	percentage damage to the plant, ABUTH [9]	percentage damage to the plant, IPOHE [10]	percentage damage to the plant, AMARE [11]	percentage damage to the plant, SETFA (Setaria faberi (SETFA) [12])
CCn1c(C)c(-c2cncc(OC)c2)c(=O)c(C(=O)O)c1-c1ccc(Cl)c(Cl)c1 [Compound 61, 2-(3,4-dichlorophenyl)-1-ethyl-5-(5-methoxy-3-pyridyl)-6-methyl-4-oxo-pyridine-3-carboxylic acid]	1 (1=0-20%)	1 (1=0-20%)	1 (1=0-20%)	1 (1=0-20%)	1 (1=0-20%)	3 (3=41-60%)	2 (2=21-40%)	1 (1=0-20%)	2 (2=21-40%)	1 (1=0-20%)	1 (1=0-20%)	4 (4=61-80%)
CCn1c(C)c(-c2cc(C)c(OC)c(C)c2)c(=O)c(C(=O)O)c1-c1ccc(Cl)c(Cl)c1 [Compound 71, 2-(3,4-dichlorophenyl)-1-ethyl-5-(4-methoxy-3,5-dimethyl-phenyl)-6-methyl-4-oxo-pyridine-3-carboxylic acid]	1 (1=0-20%)	1 (1=0-20%)	1 (1=0-20%)	1 (1=0-20%)	1 (1=0-20%)	1 (1=0-20%)	2 (2=21-40%)	1 (1=0-20%)	1 (1=0-20%)	1 (1=0-20%)	2 (2=21-40%)	2 (2=21-40%)
CCn1c(C)c(-c2ccc(C#N)cc2)c(=O)c(C(=O)O)c1-c1ccnc(Cl)c1 [Compound 142, 2-(2-chloro-4-pyridyl)-5-(4-cyanophenyl)-1-ethyl-6-methyl-4-oxo-pyridine-3-carboxylic acid]	1 (1=0-20%)	3 (3=41-60%)	2 (2=21-40%)	1 (1=0-20%)	0	2 (2=21-40%)	1 (1=0-20%)	0	0	0	0	1 (1=0-20%)
CCn1c(C)c(-c2cc(Cl)cc(C(F)(F)F)c2)c(=O)c(C(=O)O)c1-c1ccc(Cl)c(Cl)c1 [Compound 82, 5-[3-chloro-5-(trifluoromethyl)phenyl]-2-(3,4-dichlorophenyl)-1-ethyl-6-methyl-4-oxo-pyridine-3-carboxylic acid]	1 (1=0-20%)	1 (1=0-20%)	1 (1=0-20%)	1 (1=0-20%)	1 (1=0-20%)	1 (1=0-20%)	2 (2=21-40%)	1 (1=0-20%)	1 (1=0-20%)	1 (1=0-20%)	2 (2=21-40%)	2 (2=21-40%)
CCn1c(C)c(-c2cc(Cl)c(OC)c(OC)c2)c(=O)c(C(=O)O)c1-c1ccc(Cl)c(Cl)c1 [Compound 87, 5-(3-chloro-4,5-dimethoxy-phenyl)-2-(3,4-dichlorophenyl)-1-ethyl-6-methyl-4-oxo-pyridine-3-carboxylic acid]	1 (1=0-20%)	2 (2=21-40%)	2 (2=21-40%)	1 (1=0-20%)	2 (2=21-40%)	3 (3=41-60%)	3 (3=41-60%)	1 (1=0-20%)	1 (1=0-20%)	1 (1=0-20%)	1 (1=0-20%)	4 (4=61-80%)
CCn1c(C)c(-c2ccc(OC)c(C)c2)c(=O)c(C(=O)O)c1-c1ccc(Cl)c(Cl)c1 [Compound 100, 2-(3,4-dichlorophenyl)-1-ethyl-5-(4-methoxy-3-methyl-phenyl)-6-methyl-4-oxo-pyridine-3-carboxylic acid]	1 (1=0-20%)	1 (1=0-20%)	1 (1=0-20%)	3 (3=41-60%)	2 (2=21-40%)	3 (3=41-60%)	3 (3=41-60%)	1 (1=0-20%)	1 (1=0-20%)	1 (1=0-20%)	1 (1=0-20%)	4 (4=61-80%)
CCn1c(C)c(-c2ccnc(OC)c2)c(=O)c(C(=O)O)c1-c1ccc(Cl)c(Cl)c1 [Compound 53, 2-(3,4-dichlorophenyl)-1-ethyl-5-(2-methoxy-4-pyridyl)-6-methyl-4-oxo-pyridine-3-carboxylic acid]	3 (3=41-60%)	3 (3=41-60%)	2 (2=21-40%)	2 (2=21-40%)	3 (3=41-60%)	4 (4=61-80%)	4 (4=61-80%)	1 (1=0-20%)	3 (3=41-60%)	3 (3=41-60%)	1 (1=0-20%)	4 (4=61-80%)
CCn1c(C)c(-c2ccc(Cl)cc2OC)c(=O)c(C(=O)O)c1-c1ccc(Cl)c(Cl)c1 [Compound 154, 5-(4-chloro-2-methoxy-phenyl)-2-(3,4-dichlorophenyl)-1-ethyl-6-methyl-4-oxo-pyridine-3-carboxylic acid]	5 (5=81-100%)	4 (4=61-80%)	4 (4=61-80%)	3 (3=41-60%)	4 (4=61-80%)	4 (4=61-80%)	4 (4=61-80%)	2 (2=21-40%)	3 (3=41-60%)	3 (3=41-60%)	1 (1=0-20%)	4 (4=61-80%)
CCNC(=O)c1cc(-c2c(C)n(CC)c(-c3ccc(Cl)c(Cl)c3)c(C(=O)O)c2=O)ccc1Cl [Compound 72, 5-[4-chloro-3-(ethylcarbamoyl)phenyl]-(3,4-dichlorophenyl)-1-ethyl-6-methyl-4-oxo-pyridine-3-carboxylic acid]	1 (1=0-20%)	1 (1=0-20%)	1 (1=0-20%)	1 (1=0-20%)	1 (1=0-20%)	1 (1=0-20%)	1 (1=0-20%)	1 (1=0-20%)	1 (1=0-20%)	1 (1=0-20%)	1 (1=0-20%)	1 (1=0-20%)
